Laboratory results as given in ChEMBL document CHEMBL5380779, “Small Molecules Targeting the RNA-Binding Protein HuR Inhibit Tumor Growth in Xenografts” (J Med Chem, 2023).

Key:
MDA-MB-231 = experiment: Cytotoxicity against human MDA-MB-231 cells assessed as inhibition of cell growth by MTT assay; assay type: functional, cell-based
[1] = Inhibition of full-length HuR-ARE fluorescein-labeled Msi1 mRNA binding (unknown origin) incubated for 2 hrs by fluorescence polarization assay; design: species or system Homo sapiens
[2] = Inhibition of HuR-ARE fluorescein-labeled Msi1 mRNA binding (unknown origin) by fluorescence polarization assay; design: species or system Homo sapiens

| Structure (SMILES) | IC50 (MDA-MB-231) [µM] | Ki [1] [µM] | other results |
| --- | --- | --- | --- |
| O=C(Nc1ccc2sc(C(=O)O)cc2c1)c1ccccn1 | > 100 |  |  |
| O=C(O)c1cc2cc([N+](=O)[O-])ccc2[nH]1 |  | 6.95 | IC50 [1]: 29.7 µM |
| CC(C)(C)c1ccc(C(=O)Nc2ccc3[nH]c(C(=O)O)cc3c2)cc1 | > 100 |  |  |
| CN(C)c1ccc(C(=O)Nc2ccc3sc(C(=O)O)cc3c2)cc1 | > 100 |  |  |
| CCOC(=O)/C=C/c1cc2cc(NC(=O)c3ccc(C(C)(C)C)cc3)ccc2s1 | 57.7 | 13.3 |  |
| CCOC(=O)/C=C/c1cc2cc(NC(=O)c3ccc(N(C)C)cc3)ccc2[nH]1 | 76.3 | 4.39 |  |
| CC(C)(C)c1ccc(C(=O)Nc2ccc3sc(C(=O)O)cc3c2)cc1 | 90.5 | 5.08 |  |
| O=C(Nc1ccc2sc(C(=O)NO)cc2c1)c1ccccn1 | 4.43 |  |  |
| CCOC(=O)CCc1cc2cc(NC(=O)c3ccc(C(C)(C)C)cc3)ccc2s1 | 6.52 | 11.8 |  |
| CN(C)c1ccc(C(=O)Nc2ccc3[nH]c(C(=O)O)cc3c2)cc1 | 99.8 |  |  |
| CN(C)c1ccc(C(=O)Nc2ccc3[nH]c(/C=C/C(=O)O)cc3c2)cc1 | > 100 | 7.76 |  |
| CC(C)(C)c1ccc(C(=O)Nc2ccc3sc(/C=C/C(=O)NO)cc3c2)cc1 | 1.33 | 0.15 | IC50 [2]: 0.597 µM; Ki [2]: 0.139 µM |
| O=C(Nc1ccc2[nH]c(C(=O)O)cc2c1)c1ccccn1 | > 100 |  |  |
| CN(C)c1ccc(C(=O)Nc2ccc3[nH]c(C(=O)NO)cc3c2)cc1 | 11.3 |  |  |
| CCOC(=O)c1cc2cc(NC(=O)c3ccc(N(C)C)cc3)ccc2[nH]1 | > 100 |  |  |
| CC(C)(C)c1ccc(S(=O)(=O)Nc2ccc3[nH]c(C(=O)O)cc3c2)cc1 | > 100 | 6.17 |  |
| CC(C)(C)c1ccc(S(=O)(=O)Nc2ccc3[nH]c(C(=O)NO)cc3c2)cc1 | 32 | 1.75 |  |
| CCOC(=O)c1cc2cc(NS(=O)(=O)c3ccc(C(C)(C)C)cc3)ccc2[nH]1 | 31.8 | > 20 |  |

| Structure (SMILES) | IC50 (MDA-MB-231) [µM] | Ki [1] [µM] | other results |
| --- | --- | --- | --- |
| COC(=O)c1cc2cc(NC(=O)c3ccc(C(C)(C)C)cc3)ccc2s1 | 5.28 | > 20 |  |
| CC(C)(C)c1ccc(C(=O)Nc2ccc3sc(CCC(=O)O)cc3c2)cc1 | 19.8 | 3.83 |  |
| COC(=O)c1cc2cc(NC(=O)c3ccccn3)ccc2s1 | > 100 |  |  |
| CCOC(=O)c1cc2cc(NC(=O)c3ccccn3)ccc2[nH]1 | > 100 |  |  |
| CC(C)(C)c1ccc(S(=O)(=O)Nc2ccc3sc(C(=O)O)cc3c2)cc1 | > 100 | 2.42 |  |
| CCOC(=O)/C=C/c1cc2cc(NC(=O)c3ccc(C(C)(C)C)cc3)ccc2[nH]1 | 1.13 | > 20 |  |
| CC(C)(C)c1ccc(C(=O)Nc2ccc3[nH]c(/C=C/C(=O)O)cc3c2)cc1 | > 100 | 3.35 |  |
| CC(C)(C)c1ccc(S(=O)(=O)Nc2ccc3sc(/C=C/C(=O)NO)cc3c2)cc1 |  |  | IC50 [2]: 3.34 µM; Ki [2]: 0.783 µM |
| CCOC(=O)c1cc2cc(NC(=O)c3ccc(C(C)(C)C)cc3)ccc2[nH]1 | 25.1 | > 20 |  |
| COC(=O)c1cc2cc(NC(=O)c3ccc(N(C)C)cc3)ccc2s1 | > 100 |  |  |
| CN(C)c1ccc(C(=O)Nc2ccc3[nH]c(/C=C/C(=O)NO)cc3c2)cc1 | 8.91 | 0.69 |  |
| CC(C)(C)c1ccc(C(=O)Nc2ccc3sc(/C=C/C(=O)O)cc3c2)cc1 | 72.1 | 0.97 |  |
| CC(C)(C)c1ccc(C(=O)Nc2ccc3[nH]c(/C=C/C(=O)NO)cc3c2)cc1 | 2.24 | 0.34 |  |
| COC(=O)c1cc2cc(NS(=O)(=O)c3ccc(C(C)(C)C)cc3)ccc2s1 | 27.4 | 15.4 |  |
| CC(C)(C)c1ccc(S(=O)(=O)Nc2ccc3sc(C(=O)NO)cc3c2)cc1 | 12.9 | 3.24 |  |
| CC(C)(C)c1ccc(C(=O)O)cc1 |  |  | IC50 [1]: > 200 µM |
| CC(C)(C)c1ccc(C(=O)Nc2ccc3sc(C(=O)NO)cc3c2)cc1 | 3.71 | 0.44 |  |
| CC(C)(C)c1ccc(C(=O)Nc2ccc3sc(CCC(=O)NO)cc3c2)cc1 | 3.49 | 0.83 |  |
